# Columns and labels:
# [1] = system: MDR-1; assay: Rhodamine123 efflux assay; type: cell-based; settings: RGP8.5 HeLa clone without Dox; diminished with Dox
# Protocol: FIG. 2D depicts a Rhodamine 123 efflux assay of a RGP8.5 expressing HeLa clone. Cells were incubated with or without 200 ng/ml Dox for 4 days. Subsequently the cells were stained with 1 nM Rhodamine 123 and analyzed on FACS. In the top panels the GFP positive cells (striped peak, top left) were seen to extrude Rhodamine 123 from cells (striped peak, top right). […] The bottom two panels show cells in which the tTA promoter was shut down in the presence of Dox.
# Rhodamine123 efflux assay. 2.5×10^5 Hela cells were incubated in 1 ml color-free MEM with 1 mM Rhodamine123 for 15 minutes at 37° C. The cells were spun down and resuspended in 1 ml MEM without Rhodamine123 and incubated for an additional 15 minutes. The Rhodamine123 retention was analyzed on FACS (Lee, J. S. et al., (1994) Mol. Pharmacol., 46, 627-638).
# [2] = system: Bcl-xL; assay: Endogenous anti-apoptotic protein level; type: cell-based; settings: cells expressing RGP8.5, presence or absence of Dox; data not shown
# [3] = system: MDR-1; assay: MDR-1 immunostaining (UIC2-PE) and flow cytometry; type: cell-based
# Description: HeLa cells infected with different retroviral vectors, stained with monoclonal antibody MDR1 (UIC2) PE conjugate and analyzed on a fluorescence-activated cell sorting (FACS) machine. […] The middle left panel is the 8.2 peptide control showing no effect upon MDR expression. […] The right hand panels verify that the selected clone RGP8.5.1 regulates MDR expression according to induced vector expression. Upper right is the HeLa control; middle right is vector expression in absence of presumed peptide expression; lower right is after derepression of peptide expression showing induced MDR expression correlating with GFP (peptide) expression.
# The cells were stained with monoclonal antibody MDR1 (UIC2) PE conjugate and analyzed on FACS.
# Immunostaining and flow cytometry. 2.5×10^5 Hela cells were washed once with PBS and then incubated with […] PBS buffer containing 0.1% BSA plus […] monoclonal MDR-1 antibody (UIC2)-Phycoerythrin (PE) conjugate (Immunotech) at room temperature for 15 minutes. Subsequently, the cells were washed once with 2 ml PBS buffer, resuspended in 0.5 ml PBS buffer and analyzed on FACS.
# [4] = target: T1, proteasome alpha type subunit XAPC7 (Homo sapiens, UniProt O14818); assay: Yeast two-hybrid screening with RGP8.5 bait; type: binding; settings: of 26 positive clones from 20 million transformants
# T1 construct: expressed in transfected cells; host or cells: yeast (two-hybrid transformants)
# T1 sequence (O14818 1-248): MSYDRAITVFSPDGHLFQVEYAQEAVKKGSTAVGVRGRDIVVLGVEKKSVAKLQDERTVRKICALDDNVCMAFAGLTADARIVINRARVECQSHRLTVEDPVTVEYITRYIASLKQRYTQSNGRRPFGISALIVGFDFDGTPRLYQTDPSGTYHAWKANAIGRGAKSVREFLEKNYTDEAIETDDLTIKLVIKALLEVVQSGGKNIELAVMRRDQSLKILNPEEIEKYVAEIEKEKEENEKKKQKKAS
# Description: (§1) Yeast two-hybrid screening. The bait used for two-hybrid screening was RGP8.5 fused to the Gal4 DNA binding domain containing a three glycine linker/spacer. A cDNA library made from a combination of multiple human tissues (brain, lymphocyte, stomach, pancreas, liver, intestine) was used for the screening. 20 million transformants were screened. 27 His^+/LacZ^+ colonies were retrieved for further analysis.
# [5] = target: T2, proteasome alpha type subunit Zeta (Homo sapiens, UniProt P28066); assay: Yeast two-hybrid screening with RGP8.5 bait; type: binding; settings: of 26 positive clones from 20 million transformants
# T2 construct: expressed in transfected cells; host or cells: yeast (two-hybrid transformants)
# T2 sequence (P28066 1-241): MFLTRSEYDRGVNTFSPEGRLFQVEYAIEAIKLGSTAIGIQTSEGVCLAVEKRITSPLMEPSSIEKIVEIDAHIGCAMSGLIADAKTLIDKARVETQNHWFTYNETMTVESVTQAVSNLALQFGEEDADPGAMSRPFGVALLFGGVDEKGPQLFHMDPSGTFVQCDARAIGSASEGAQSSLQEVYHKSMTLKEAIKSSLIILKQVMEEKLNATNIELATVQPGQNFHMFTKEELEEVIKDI
# Description: as §1
# [6] = system: HeLa cells; assay: Flow cytometric analysis of cellular DNA content (cell cycle); type: cell-based; settings: peptide positive (GFP gated) vs peptide negative cells
# Protocol: RG8.5 peptide expressing cells were growing to 50% confluence. The cells were harvested and processed for flow cytometry of DNA. In the DNA content profile, the bold line represents the peptide negative cells and the grayed area curve represents the RG8.5 peptide positive cells. Cells were gated for GFP expression, FIG. 6B top, as indicated.
# Flow cytometric analysis of cellular DNA content. The RG8.5 expressing cells were grown in the logarithmic phase. The cells were harvested, washed once with PBS and fixed in 2% paraformaldehyde pH7.4 at 4° C. for 30 minutes. After washing with 1 %BSA-PBS, the cells were resuspended in PI staining buffer containing […] RNase, 50 ug/ml PI, 0.1% Triton X100 in 0.1% Na Citrate pH7.4 buffer, RT for 30 min, and analyzed on FACS.
# [7] = system: HeLa cells; assay: Growth rate of GFP positive versus GFP negative population; type: cell-based; settings: data not shown
substance,measurement,setting,value
MGEFLIVKVVWGRMVCWV-LVVRRFVLVIVLENSLSSNQGPP [RGP8.5],Rhodamine 123 efflux,[1],clearly was able to extrude
same,Bcl-xL expression level,[2],same expression level
same,regulating the MDR expression levels as compared to MG132,[3],more effective
same,MDR-1 expression as a function of peptide expression (FACS),"[3]; HeLa cells, GFP as surrogate peptide expression indicator",apparently regulated
same,positive yeast two-hybrid clones encoding XAPC7,[4],25
same,positive yeast two-hybrid clones encoding Zeta,[5],1
same,cell cycle distribution,[6],accumulate at G2/M
same,impact on cell growth,[7],negative impact

# Reference: patent US6737240B1, “Methods of screening for a multi-drug resistance conferring peptide” (Rigel Pharmaceuticals, Inc., priority 1999, dated 2004)
